{"source": "patent US5906831A", "about": "“Controlled release composition forming a reversed micellar (L2) structure or a normal micellar (L1) structure” (GS Development AB, priority 1994, dated 1999)", "key": {"[1]": {"experiment": "visual inspection of mixtures of monocaproin with polar solvents (miscibility)", "format": "physicochemical", "source_text": "Many galenic formulations of drugs contain polar solvents."}, "[2]": {"conditions": "all compositions, in water; cited from earlier work"}, "[3]": {"conditions": "diluted water solution; cited from earlier work"}}}
{"smiles": "CCCCCC(=O)OCC(O)CO", "note": "(stereo not drawn) [monocaproin, glycerolmonohexanoate]", "values": [{"measurement": "Appearance", "setting": "[1]; 5% Ethanol / 5% Propylene Glycol (w/w), 90% monocaproin", "value": "clear, low viscous"}, {"measurement": "Appearance", "setting": "[1]; 10% (w/w) Ethanol, 90% monocaproin", "value": "clear, low viscous"}, {"measurement": "Appearance", "setting": "[1]; 10% (w/w) Propylene Glycol, 90% monocaproin", "value": "clear, low viscous"}, {"measurement": "Appearance", "setting": "[1]; 90% (w/w) Ethanol, 10% monocaproin", "value": "clear, low viscous"}, {"measurement": "phase behaviour of aqueous system", "setting": "[2]", "value": "one single liquid phase at all compositions"}, {"measurement": "critical micellar concentration (cmc)", "setting": "[3]", "value": 160, "unit": "mM"}]}
